We go through 28 molecules from patent publication US10150763B2, “Histone deacetylase inhibitors and their use in therapy” (Karus Therapeutics Limited, priority 2012, dated 2018).

One data set addresses HDAC1 (Homo sapiens (Human), UniProt Q13547). Description: HDAC inhibitory activity assay (as described in WO2008/062201), HDAC1. The format is biochemical.
The next data set relates to A549. Description: In vitro cancer cell growth inhibition, A549. The format is cell-based. As to conditions: Homo sapiens. From the text:
(§1) In Vitro Cancer Cell Growth Inhibition Data for Compound A

The next data set deals with PC-3. Description: In vitro cancer cell growth inhibition, PC-3. The format is cell-based. As to conditions: Homo sapiens; PC-3 cancer cell growth inhibition.
From the text: as §1

The target of another data set is HDAC6 (Homo sapiens (Human), UniProt Q9UBN7). Description: HDAC inhibitory activity assay (as described in WO2008/062201), HDAC6. In kind it is biochemical.
Sequence of HDAC6 (Q9UBN7 whole entry, species assumed): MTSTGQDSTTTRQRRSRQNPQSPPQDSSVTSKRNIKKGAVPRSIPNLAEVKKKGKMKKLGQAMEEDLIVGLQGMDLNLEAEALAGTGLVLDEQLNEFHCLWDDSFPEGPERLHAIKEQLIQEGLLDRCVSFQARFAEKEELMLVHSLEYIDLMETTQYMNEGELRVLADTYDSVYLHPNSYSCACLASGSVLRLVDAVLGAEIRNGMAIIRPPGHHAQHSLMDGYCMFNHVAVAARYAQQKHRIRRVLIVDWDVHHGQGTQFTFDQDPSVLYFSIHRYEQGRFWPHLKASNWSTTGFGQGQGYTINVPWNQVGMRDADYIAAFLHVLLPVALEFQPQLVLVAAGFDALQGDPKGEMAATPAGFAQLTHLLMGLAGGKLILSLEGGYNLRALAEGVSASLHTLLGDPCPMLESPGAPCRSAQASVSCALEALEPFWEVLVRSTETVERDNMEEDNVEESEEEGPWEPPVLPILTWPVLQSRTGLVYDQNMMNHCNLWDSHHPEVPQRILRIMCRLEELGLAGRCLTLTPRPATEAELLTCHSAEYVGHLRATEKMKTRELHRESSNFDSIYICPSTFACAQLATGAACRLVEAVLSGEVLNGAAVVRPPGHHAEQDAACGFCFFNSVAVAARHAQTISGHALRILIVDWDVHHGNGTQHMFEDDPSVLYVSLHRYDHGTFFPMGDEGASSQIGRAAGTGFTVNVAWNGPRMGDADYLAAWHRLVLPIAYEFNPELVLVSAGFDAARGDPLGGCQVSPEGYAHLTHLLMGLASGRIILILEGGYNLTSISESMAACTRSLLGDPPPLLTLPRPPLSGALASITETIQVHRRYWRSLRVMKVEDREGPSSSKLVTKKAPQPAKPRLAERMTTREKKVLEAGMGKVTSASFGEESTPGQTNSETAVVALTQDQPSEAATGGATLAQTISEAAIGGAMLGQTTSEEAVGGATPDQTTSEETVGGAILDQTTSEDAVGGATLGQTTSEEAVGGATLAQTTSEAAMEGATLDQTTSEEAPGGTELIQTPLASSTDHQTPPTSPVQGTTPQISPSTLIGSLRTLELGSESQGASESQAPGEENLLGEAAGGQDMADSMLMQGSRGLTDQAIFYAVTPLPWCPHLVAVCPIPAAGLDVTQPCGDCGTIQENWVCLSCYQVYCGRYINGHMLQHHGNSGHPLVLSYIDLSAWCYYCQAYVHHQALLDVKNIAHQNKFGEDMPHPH
Data set [1] is described as follows: Comparative mouse pharmacokinetics (oral bioavailability). As to conditions: in vivo, read-out: Oral bioavailability, F %.
Where [2] appears, read: class symbol, read-out: IC50, HDAC1.
Where [3] appears, read: class symbol, read-out: IC50, HDAC6.

Where two headings read alike, the source gives them in different places. Where only a bound is given, the exact number is not on record here.

Sequence of HDAC1 (Q13547 whole entry, species assumed): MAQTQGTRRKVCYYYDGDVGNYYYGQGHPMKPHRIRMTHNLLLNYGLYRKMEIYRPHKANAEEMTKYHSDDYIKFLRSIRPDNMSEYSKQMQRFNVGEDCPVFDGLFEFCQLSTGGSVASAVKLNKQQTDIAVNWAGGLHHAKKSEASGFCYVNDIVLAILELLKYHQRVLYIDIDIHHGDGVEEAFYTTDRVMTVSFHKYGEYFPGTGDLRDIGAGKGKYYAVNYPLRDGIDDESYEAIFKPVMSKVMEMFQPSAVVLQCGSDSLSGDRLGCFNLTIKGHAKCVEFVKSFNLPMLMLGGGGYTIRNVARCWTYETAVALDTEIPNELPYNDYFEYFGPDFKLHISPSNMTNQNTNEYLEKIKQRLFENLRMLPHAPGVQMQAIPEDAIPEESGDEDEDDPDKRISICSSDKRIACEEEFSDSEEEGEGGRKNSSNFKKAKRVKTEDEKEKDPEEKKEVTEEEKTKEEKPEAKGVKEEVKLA

Regarding `Cc1nsc(N(CCCCCCC(=O)NO)c2ccccn2)n1` [Example A, N-Hydroxy-7-[(3-methyl-1,2,4-thiadiazol-5-yl)(pyridin-2-yl)amino]heptanamide], the IC50 – broadly, the concentration that gives 50% inhibition – against HDAC1 is under 500 nM; on HDAC1 (numeric value, read-out: IC50, HDAC1), 226 nM; with A549 it was 1.89 µM; in the data set on PC-3, 2.32 µM; against HDAC6, under 500 nM; at HDAC6 (numeric value, read-out: IC50, HDAC6), 1.76 nM. For the same molecule, the bioavailability (commonly dose-corrected exposure relative to a reference, in per cent) in data set [1] turned out to be 19%.
Turning to `O=C(CCCCCCN(c1ccccn1)c1nc(C(F)(F)F)ns1)NO` [Example AA], the IC50 on HDAC1 (setting [2]) fell in the range of 1000 to 10000 nM.
For the molecule `Cc1nsc(N(CCCCCCC(=O)NO)c2cccnc2)n1` [Example B, N-Hydroxy-7-[(3-methyl-1,2,4-thiadiazol-5-yl)(pyridin-3-yl)amino]heptanamide], the IC50 at HDAC1 (setting [2]) and at HDAC6 (setting [3]) was under 500 nM throughout.
Turning to `Cc1nsc(N(CCCCCCC(=O)NO)c2ccc(F)cn2)n1` [Example CC, 7-((5-Fluoropyridin-2-yl)(3-methyl-1,2,4-thiadiazol-5-yl)amino)-N-hydroxyheptanamide], the IC50 is 500 to 1000 nM at HDAC1 (setting [2]) and under 500 nM on HDAC6 (setting [3]).
For `Cc1noc(N(CCCCCCCC(=O)NO)c2ccccn2)n1` [Example D, N-Hydroxy-8-((3-methyl-1,2,4-oxadiazol-5-yl)(pyridin-2-yl)amino)octanamide], the 50% inhibitory concentration (IC50) on HDAC1 (setting [2]) lay within 1000 to 10000 nM.
Turning to `Cc1nsc(N(CCCCCCCC(=O)NO)c2ccc(F)cn2)n1` [Example DD, 8-((5-Fluoropyridin-2-yl)(3-methyl-1,2,4-thiadiazol-5-yl)amino)-N-hydroxyoctanamide], the IC50 is 1000 to 10000 nM at HDAC1 (setting [2]) and under 500 nM at HDAC6 (setting [3]).
Turning to `Cc1nsc(N(CCCCCCC(=O)NO)c2cc(-c3ccc(F)cc3)ccn2)n1` [Example EE, 7-((4-(4-Fluorophenyl)pyridin-2-yl)(3-methyl-1,2,4-thiadiazol-5-yl)amino)-N-hydroxyheptanamide], the IC50 at HDAC1 (setting [2]) is 1000 to 10000 nM; on HDAC6 (setting [3]), under 500 nM.
On the same counts, the results for `Cc1nsc(N(CCCCCCCC(=O)NO)c2cc(-c3ccc(F)cc3)ccn2)n1` [Example FF, 8-((4-(4-Fluorophenyl)-pyridin-2-yl)(3-methyl-1,2,4-thiadiazol-5-yl)amino)-N-hydroxyoctanamide] are 1000 to 10000 nM and under 500 nM.
In the same order, the values of `O=C(CCCCCCN(c1ccc(F)cn1)c1nc(C(F)(F)F)ns1)NO` [Example GG, 7-((5-Fluoropyridin-2-yl)(3-(trifluoromethyl)1,2,4-thiadiazol-5-yl)amino)-N-hydroxyheptanamide] are 500 to 1000 nM and under 500 nM.
With `O=C(CCCCCCCN(c1ccccn1)c1nncs1)NO` [Example H, N-Hydroxy-8-(pyridin-2-yl(1,3,4-thiadiazol-2-yl)amino)octanamide], the concentration for half-maximal inhibition (IC50) at HDAC1 (setting [2]) lay within 1000 to 10000 nM.
On to `O=C(CCCCCCCN(c1ccc(F)cn1)c1nc(C(F)(F)F)ns1)NO` [Example HH, 8-((5-Fluoropyridin-2-yl)(3-(trifluoromethyl)1,2,4-thiadiazol-5-yl)amino)-N-hydroxyoctanamide], for which the half-inhibitory concentration (IC50) on HDAC1 (setting [2]) was 1000 to 10000 nM; on HDAC6 (setting [3]), under 500 nM.
Consider `Cc1nnc(N(CCCCCCC(=O)NO)c2ccccn2)s1` [Example I, N-Hydroxy-7-((5-methyl-1,3,4-thiadiazol-2-yl)(pyridin-2-yl)amino)heptanamide], for which the IC50 at HDAC1 (setting [2]) lay within 500 to 1000 nM.
As for `Cc1nnc(N(CCCCCCCC(=O)NO)c2ccccn2)s1` [Example J, N-Hydroxy-8-((5-methyl-1,3,4-thiadiazol-2-yl)(pyridin-2-yl)amino)octanamide], on HDAC1 (setting [2]), the IC50 lay in the range of 1000 to 10000 nM.
Take `O=C(CCCCCCN(c1ccccn1)c1nccs1)NO` [Example KK, N-Hydroxy-7-(pyridin-2-yl(thiazol-2-yl)amino)heptanamide]: the IC50 at HDAC1 (setting [2]) fell in the range of 1000 to 10000 nM.
The same measure, in the same setting: then `O=C(CCCCCCCN(c1ccccn1)c1nccs1)NO` [Example LL, N-Hydroxy-8-(pyridin-2-yl(thiazol-2-yl)amino)octanamide], with 1000 to 10000 nM; and `Cn1c(N(CCCCCCC(=O)NO)c2ccccn2)nc2ccccc21` [Example M, N-Hydroxy-7-((1-methyl-1H-benzo[d]imidazol-2-yl)(pyridin-2-yl)amino)heptanamide], with 1000 to 10000 nM; and `O=C(CCCCCCN(c1ccccn1)c1ncns1)NO` [Example O, N-Hydroxy-7-(pyridin-2-yl(1,2,4-thiadiazol-5-yl)amino)heptanamide], with 500 to 1000 nM.
Consider `O=C(CCCCCCCN(c1ccccn1)c1ncns1)NO` [Example P, N-Hydroxy-8-(pyridin-2-yl(1,2,4-thiadiazol-5-yl)amino)octanamide], for which the IC50 at HDAC1 (setting [2]) was in the range of 1000 to 10000 nM.
Consider `Cc1noc(N(CCCCCCC(=O)NO)c2ccc(F)cn2)n1` [Example Q, 7-((5-Fluoropyridin-2-yl)(3-methyl-1,2,4-oxadiazol-5-yl)amino)-N-hydroxyheptanamide], for which the concentration for half-maximal inhibition (IC50) was over 10000 nM at HDAC1 (setting [2]) and under 500 nM at HDAC6 (setting [3]).
In the same order, the values of `Cc1noc(N(CCCCCCCC(=O)NO)c2ccc(F)cn2)n1` [Example R, 8-((5-Fluoropyridin-2-yl)(3-methyl-1,2,4-oxadiazol-5-yl)amino)-N-hydroxyoctanamide] are 1000 to 10000 nM and under 500 nM.
On the same counts, the results for `Cn1c(N(CCCCCCC(=O)NO)c2ccc(F)cn2)nc2ccccc21` [Example S, 7-((5-Fluoropyridin-2-yl)(1-methyl-1H-benzo[d]imidazol-2-yl)amino)-N-hydroxyheptanamide] are 500 to 1000 nM and under 500 nM.
On the same counts, the results for `Cn1c(N(CCCCCCCC(=O)NO)c2ccc(F)cn2)nc2ccccc21` [Example T, 8-((5-Fluoropyridin-2-yl)(1-methyl-1H-benzo[d]imidazol-2-yl)amino)-N-hydroxyoctanamide] are 1000 to 10000 nM and under 500 nM.
Regarding `Cn1ccc(N(CCCCCCC(=O)NO)c2ccc(F)cn2)n1` [Example U, 7-((5-Fluoropyridin-2-yl)(1-methyl-1H-pyrazol-3-yl)amino)-N-hydroxyheptanamide], the IC50 at HDAC1 (setting [2]) is 1000 to 10000 nM; at HDAC6 (setting [3]), under 500 nM.
In the same order, the values of `Cn1ccc(N(CCCCCCCC(=O)NO)c2ccc(F)cn2)n1` [Example V, 8-((5-Fluoropyridin-2-yl)(1-methyl-1H-pyrazol-3-yl)amino)-N-hydroxyoctanamide] are over 10000 nM and under 500 nM.
On the same counts, the results for `O=C(CCCCCCN(c1ccc(F)cn1)c1nc2ccccc2o1)NO` [Example W, 7-(Benzo[d]oxazol-2-yl(5-fluoropyridin-2-yl)amino)-N-hydroxyheptanamide] are 1000 to 10000 nM and under 500 nM.
As to `O=C(CCCCCCCN(c1ccc(F)cn1)c1nc2ccccc2o1)NO` [Example X, 8-(Benzo[d]oxazol-2-yl(5-fluoropyridin-2-yl)amino)-N-hydroxyoctanamide], the figures for the IC50 at HDAC1 (setting [2]) and on HDAC6 (setting [3]) were 1000 to 10000 nM and under 500 nM, respectively.
`Cn1ccc(N(CCCCCCC(=O)NO)c2cc(-c3ccc(F)cc3)ccn2)n1` [Example Y, 7-((4-(4-Fluorophenyl)pyridin-2-yl)(1-methyl-1H-pyrazol-3-yl)amino)-N-hydroxyheptanamide]: the IC50 at HDAC1 (setting [2]) and at HDAC6 (setting [3]) was under 500 nM throughout.
Turning to `Cn1ccc(N(CCCCCCCC(=O)NO)c2cc(-c3ccc(F)cc3)ccn2)n1` [Example Z, 8-((4-(4-Fluorophenyl)pyridin-2-yl)(1-methyl-1H-pyrazol-3-yl)amino)-N-hydroxyoctanamide], the IC50 is over 10000 nM on HDAC1 (setting [2]) and under 500 nM at HDAC6 (setting [3]).
